Measured values from patent publication US8178490B2, “Polybasic bacterial efflux pump inhibitors and therapeutic uses thereof” (priority 2007, dated 2012).

Experiment: Rat serum pharmacokinetics after 1.5-hour IV infusion
Assay type: in vivo
Details: two-compartment model; for Cmax / clearance: 1.5-hour IV infusion in 0.9% saline, dose (mg/kg) differs per compound; for clearance: read-out: Clearance (free drug clearance) (converted); for pharmacokinetic profile: […] IV infusion in 0.9% saline, total dose 2, 5, 10 or 20 mg/kg
Protocol: In the experiment depicted in Table 7, above, rat serum pharmacokinetics of selected inhibitor compounds was evaluated after 1.5-hour IV infusion of 1.5 ml solution of corresponding efflux pump inhibitor in 0.9% saline. Depending on the concentration used the total infused dose was 2, 5, 10 or 20 mg/kg. A two-compartment model was used to fit the data and calculate PK parameters.

Structure (SMILES): Cl.Cl.Cl.Cl.N[C@@H](CCC(=O)N1C[C@H](N)[C@@H](N)C1)C(=O)N[C@H](CCc1ccccc1)C(=O)Nc1cnc2ccccc2c1 [Compound 41, 3-[(1S)-1-{[(1R)-1-carbamoyl-3-phenylpropyl]carbamoyl}-4-[(3S,4S)-3,4-diazaniumylpyrrolidin-1-yl]-4-oxobutan-1-aminium]quinolin-1-ium tetrachloride]
- Cmax: 8100 ng/mL
- clearance: 45.3 mL/min/kg

Structure (SMILES): Cl.Cl.Cl.Cl.NCCN(CCN)C(=O)CC[C@H](N)C(=O)N[C@H](Cc1ccc(OC(F)(F)F)cc1)C(=O)Nc1cnc2ccccc2c1 [Compound 31, 3-[(1S)-3-[bis(2-azaniumylethyl)carbamoyl]-1-{[(1R)-1-carbamoyl-2-[4-(trifluoromethoxy)phenyl]ethyl]carbamoyl}propan-1-aminium]quinolin-1-ium tetrachloride]
- Cmax: 21900 ng/mL
- clearance: 30 mL/min/kg

Structure (SMILES): NCCN(CCN)C(=O)C[C@H](N)C(=O)N[C@@H](CCc1ccccc1)C(=O)Nc1cnc2ccccc2c1 [Compound 2, 3-[(1S)-2-[bis(2-azaniumylethyl)carbamoyl]-1-{[(1S)-1-carbamoyl-3-phenylpropyl]carbamoyl}ethan-1-aminium]quinolin-1-ium tetrachloride]
- Cmax: 2250 ng/mL
- clearance: 217 mL/min/kg
- pharmacokinetic profile: particularly attractive pharmacokinetic profiles

Structure (SMILES): CC(C)Oc1ccc(NC(=O)[C@H](CCc2ccccc2)NC(=O)[C@@H](N)CC(=O)N(CCN)CCN)c(F)c1 [Compound 215]
- Cmax: 690 ng/mL
- clearance: 93.3 mL/min/kg

Structure (SMILES): COc1cc(OC(F)(F)F)ccc1CNC(=O)[C@H](CCc1ccccc1)NC(=O)[C@@H](N)CC(=O)N(CCN)CCN [Compound 233]
- Cmax: 4920 ng/mL
- clearance: 118 mL/min/kg

Structure (SMILES): NCCN(CCN)C(=O)C[C@H](N)C(=O)N[C@@H](CCc1ccccc1)C(=O)Nc1cc(Cl)c(Cl)cc1Cl [Compound 87]
- Cmax: 11000 ng/mL
- clearance: 64.3 mL/min/kg

Structure (SMILES): CCOc1c(F)cc(NC(=O)[C@H](CCc2ccccc2)NC(=O)[C@@H](N)CC(=O)N(CCN)CCN)cc1F.Cl.Cl.Cl [Compound 352, (1S)-2-[bis(2-azaniumylethyl)carbamoyl]-1-{[(1S)-1-[(4-ethoxy-3,5-difluorophenyl)carbamoyl]-3-phenylpropyl]carbamoyl}ethan-1-aminium trichloride]
- Cmax: 2440 ng/mL
- clearance: 177 mL/min/kg

Structure (SMILES): Cc1ccc(C)c(CNC(=O)[C@H](CCc2ccccc2)NC(=O)[C@@H](N)CC(=O)N(CCN)CCN)c1 [Compound 96]
- Cmax: 3850 ng/mL
- clearance: 51.8 mL/min/kg

Structure (SMILES): Cl.Cl.Cl.Cl.N[C@@H]1CN(C(=O)CC[C@H](N)C(=O)N[C@H](Cc2ccc(C(F)(F)F)cc2)C(=O)Nc2cnc3ccccc3c2)C[C@@H]1N [Compound 30, 3-[(1S)-1-{[(1R)-1-carbamoyl-2-[4-(trifluoromethyl)phenyl]ethyl]carbamoyl}-4-[(3R,4S)-3,4-diazaniumylpyrrolidin-1-yl]-4-oxobutan-1-aminium]quinolin-1-ium tetrachloride]
- Cmax: 7610 ng/mL
- clearance: 56 mL/min/kg

Structure (SMILES): NCCN(CCN)C(=O)C[C@H](N)C(=O)N[C@@H](CCc1ccccc1)C(=O)NCc1ccc(OC2CCOCC2)cc1 [Compound 133]
- Cmax: 1270 ng/mL
- clearance: 88.3 mL/min/kg

Structure (SMILES): NCCN(CCN)C(=O)C[C@@H](N)C(=O)N[C@H](CCc1ccccc1)C(=O)Nc1cnc2ccccc2c1 [Compound 44, 3-[(1R)-2-[bis(2-azaniumylethyl)carbamoyl]-1-{[(1R)-1-carbamoyl-3-phenylpropyl]carbamoyl}ethan-1-aminium]quinolin-1-ium tetrachloride]
- Cmax: 2680 ng/mL
- clearance: 24.7 mL/min/kg

Structure (SMILES): NCCN(CCN)C(=O)C[C@H](N)C(=O)N[C@@H](CCc1ccccc1)C(=O)NCc1ccc(OC(F)(F)F)cc1 [Compound 95]
- Cmax: 1750 ng/mL
- clearance: 30.2 mL/min/kg

Structure (SMILES): Cl.Cl.Cl.Cl.N[C@@H](CCC(=O)N1C[C@H](N)[C@@H](N)C1)C(=O)N[C@H](Cc1ccc(C(F)(F)F)cc1)C(=O)Nc1cnc2ccccc2c1 [Compound 33, 3-[(1S)-1-{[(1R)-1-carbamoyl-2-[4-(trifluoromethyl)phenyl]ethyl]carbamoyl}-4-[(3S,4S)-3,4-diazaniumylpyrrolidin-1-yl]-4-oxobutan-1-aminium]quinolin-1-ium tetrachloride]
- Cmax: 3980 ng/mL
- clearance: 105 mL/min/kg

Structure (SMILES): NCCN(CCN)C(=O)C[C@H](N)C(=O)N[C@@H](CCc1ccccc1)C(=O)Nc1ccc2cnccc2c1 [Compound 49]
- Cmax: 2390 ng/mL
- clearance: 70.2 mL/min/kg

Structure (SMILES): Cc1cc(CNC(=O)[C@H](CCc2ccccc2)NC(=O)[C@@H](N)CC(=O)N(CCN)CCN)c(C(F)(F)F)o1 [Compound 67]
- Cmax: 2980 ng/mL
- clearance: 51.7 mL/min/kg

Structure (SMILES): CCOc1ccc(NC(=O)[C@H](CCc2ccccc2)NC(=O)[C@@H](N)CC(=O)N(CCN)CCN)cc1 [Compound 85]
- Cmax: 13900 ng/mL
- clearance: 50 mL/min/kg

Structure (SMILES): NCCN(CCN)C(=O)C[C@H](N)C(=O)N[C@@H](CCc1ccccc1)C(=O)Nc1cccc(C(F)(F)F)c1 [Compound 90]
- Cmax: 1220 ng/mL
- clearance: 103 mL/min/kg

Structure (SMILES): Cl.Cl.Cl.Cl.NCCN(CCN)CCC[C@H](N)C(=O)N[C@H](CCc1ccccc1)C(=O)Nc1cnc2ccccc2c1 [Compound 46, 3-[(1S)-4-[bis(2-azaniumylethyl)amino]-1-{[(1R)-1-carbamoyl-3-phenylpropyl]carbamoyl}butan-1-aminium]quinolin-1-ium tetrachloride]
- Cmax: 4000 ng/mL
- clearance: 13.5 mL/min/kg
- pharmacokinetic profile: particularly attractive pharmacokinetic profiles

Structure (SMILES): Cc1cc(C)c(NC(=O)[C@H](CCc2ccccc2)NC(=O)[C@@H](N)CC(=O)N(CCN)CCN)c(C)c1 [Compound 88]
- Cmax: 2500 ng/mL
- clearance: 28 mL/min/kg

Structure (SMILES): NCCN(CCN)C(=O)C[C@H](N)C(=O)N[C@@H](CCc1ccccc1)C(=O)NCc1ccc(Oc2ccccn2)cc1 [Compound 110]
- Cmax: 1890 ng/mL
- clearance: 91.2 mL/min/kg

Structure (SMILES): CC(C)Oc1ccc(CNC(=O)[C@H](CCc2ccccc2)NC(=O)[C@@H](N)CC(=O)N(CCN)CCN)cc1 [Compound 237]
- Cmax: 1260 ng/mL
- clearance: 70.8 mL/min/kg

Structure (SMILES): NCCN(CCN)C(=O)C[C@H](N)C(=O)NCC(=O)N(Cc1ccc(C(F)(F)F)cc1)c1cnc2ccccc2c1 [Compound 357, 3-[(1S)-2-[bis(2-azaniumylethyl)carbamoyl]-1-{[({[4-(trifluoromethyl)phenyl]methyl}carbamoyl)methyl]carbamoyl}ethan-1-aminium]quinolin-1-ium tetrachloride]
- Cmax: 660 ng/mL
- clearance: 145 mL/min/kg

Structure (SMILES): Cl.Cl.Cl.Cl.NCCN(CCN)C(=O)C[C@H](N)C(=O)N[C@H](CCc1ccccc1)C(=O)Nc1cnc2ccccc2c1 [Compound 48, 3-[(1S)-2-[bis(2-azaniumylethyl)carbamoyl]-1-{[(1R)-1-carbamoyl-3-phenylpropyl]carbamoyl}ethan-1-aminium]quinolin-1-ium tetrachloride]
- Cmax: 7200 ng/mL
- clearance: 26 mL/min/kg
- pharmacokinetic profile: particularly attractive pharmacokinetic profiles

Structure (SMILES): CC(C)Oc1ccc(NC(=O)[C@H](CCc2ccccc2)NC(=O)[C@@H](N)CC(=O)N(CCN)CCN)cc1 [Compound 214]
- Cmax: 1540 ng/mL
- clearance: 92.2 mL/min/kg

Structure (SMILES): Cl.Cl.Cl.Cl.NCCN(CCN)C(=O)C[C@H](N)C(=O)NCC(=O)N[C@@H](CCc1ccccc1)C(=O)Nc1cnc2ccccc2c1 [Compound 348, 3-[(1S)-2-[bis(2-azaniumylethyl)carbamoyl]-1-[({[(1S)-1-carbamoyl-3-phenylpropyl]carbamoyl}methyl)carbamoyl]ethan-1-aminium]quinolin-1-ium tetrachloride]
- Cmax: 2200 ng/mL
- clearance: 328 mL/min/kg

Structure (SMILES): NCCN(CCN)C(=O)C[C@H](N)C(=O)N[C@@H](CCc1ccccc1)C(=O)NCc1c(Cl)cccc1Cl [Compound 224]
- Cmax: 1590 ng/mL
- clearance: 66.2 mL/min/kg

Structure (SMILES): Cl.Cl.Cl.Cl.NCCN(CCN)C(=O)C[C@H](N)C(=O)N[C@H](Cc1ccc(C(F)(F)F)cc1)C(=O)Nc1cnc2ccccc2c1 [Compound 359, 3-[(1S)-2-[bis(2-azaniumylethyl)carbamoyl]-1-{[(1R)-1-carbamoyl-2-[4-(trifluoromethyl)phenyl]ethyl]carbamoyl}ethan-1-aminium]quinolin-1-ium tetrachloride]
- Cmax: 5030 ng/mL
- clearance: 48.2 mL/min/kg

Structure (SMILES): NCCN(CCN)C(=O)C[C@H](N)C(=O)N[C@@H](CCc1ccccc1)C(=O)NCc1ccc(F)c(C(F)(F)F)c1 [Compound 102]
- Cmax: 5050 ng/mL
- clearance: 43 mL/min/kg

Structure (SMILES): Cl.Cl.Cl.Cl.NCCN(CCN)C(=O)CC[C@H](N)C(=O)N[C@H](CCc1ccccc1)C(=O)Nc1cnc2ccccc2c1 [Compound 47, 3-[(1S)-3-[bis(2-azaniumylethyl)carbamoyl]-1-{[(1R)-1-carbamoyl-3-phenylpropyl]carbamoyl}propan-1-aminium]quinolin-1-ium tetrachloride]
- Cmax: 8100 ng/mL
- clearance: 28.3 mL/min/kg

Structure (SMILES): CC(C)c1ccc(NC(=O)[C@H](CCc2ccccc2)NC(=O)[C@@H](N)CC(=O)N(CCN)CCN)cc1 [Compound 91]
- Cmax: 2670 ng/mL
- clearance: 98.2 mL/min/kg

Structure (SMILES): Cc1ccc(NC(=O)[C@H](CCc2ccccc2)NC(=O)[C@@H](N)CC(=O)N(CCN)CCN)cc1 [Compound 77]
- Cmax: 2960 ng/mL
- clearance: 63.2 mL/min/kg

Structure (SMILES): CCCc1ccccc1NC(=O)[C@H](CCc1ccccc1)NC(=O)[C@@H](N)CC(=O)N(CCN)CCN [Compound 271]
- Cmax: 340 ng/mL
- clearance: 78.5 mL/min/kg

Structure (SMILES): Cl.Cl.Cl.Cl.NCCN(CCN)C(=O)C[C@H](N)C(=O)N[C@H](C(=O)Nc1cnc2ccccc2c1)C(O)c1ccc(C(F)(F)F)cc1 (stereo partly drawn) [Compound 169, 3-[(1S)-2-[bis(2-azaniumylethyl)carbamoyl]-1-{[(1S)-1-carbamoyl-2-hydroxy-2-[4-(trifluoromethyl)phenyl]ethyl]carbamoyl}ethan-1-aminium]quinolin-1-ium tetrachloride]
- Cmax: 22900 ng/mL
- clearance: 31.3 mL/min/kg
